Data from patent publication US11708348B2, “Protease inhibitors for treatment of coronavirus infections” (The Scripps Research Institute, priority 2021, dated 2023).

Tested on: SARS-CoV-2 strain USA-WA1/2020
Test: microbe, parasite or virus in culture
Type: cell-based
Conditions: Severe acute respiratory syndrome coronavirus 2, HeLa-ACE2, 24 h, HeLa-ACE2 cells, SARS-CoV-2 infection, 24 h; cells given as a bound; read-out: EC50, uM (Hela)

Row | SMILES | EC50
1 | COc1cccc2[nH]c(C(=O)N[C@@H](CC(C)C)C(=O)N[C@@H](C[C@@H]3CCNC3=O)C(=O)COCC(F)(F)F)cc12 [Compound 162, 4-methoxy-N-((S)-4-methyl-1-oxo-1-(((S)-3-oxo-1-((S)-2-oxopyrrolidin-3-yl)-4-(2,2,2-trifluoroethoxy)butan-2-yl)amino)pentan-2-yl)-1H-indole-2-carboxamide] | > 1 µM
2 | CC(C)C[C@H](NC(=O)OC1CCCC1)C(=O)N[C@@H](C[C@@H]1CCNC1=O)C(=O)COc1c(F)c(F)cc(F)c1F [Compound 21, cyclopentyl ((S)-4-methyl-1-oxo-1-(((S)-3-oxo-1-((S)-2-oxopyrrolidin-3-yl)-4-(2,3,5,6-tetrafluorophenoxy)butan-2-yl)amino)pentan-2-yl)carbamate] | > 1 µM

Same assay, conditions: Severe acute respiratory syndrome coronavirus 2, HeLa-ACE2, 24 h, HeLa-ACE2 cells, SARS-CoV-2 infection, 24 h; class symbols; read-out: EC50, uM (Hela)

Row | SMILES | EC50
3 | O=C1NCC[C@H]1C[C@H](NC(=O)[C@@H]1CC2(CC2)CN1C(=O)[C@@H](O)C(F)(F)F)C(=O)COC(F)(F)F [Compound 387, (S)-N-((S)-3-oxo-1-((S)-2-oxopyrrolidin-3-yl)-4-(trifluoromethoxy)butan-2-yl)-5-((R)-3,3,3-trifluoro-2-hydroxypropanoyl)-5-azaspiro[2.4]-heptane-6-carboxamide] | 0.05 to 0.2 µM
4 | O=C1NCC[C@H]1C[C@H](NC(=O)[C@@H]1CC2(CC2)CN1C(=O)C(O)CC(F)(F)F)C(=O)COC(F)(F)F (stereo partly drawn) [Compound 390, (6S)-N-((S)-3-oxo-1-((S)-2-oxopyrrolidin-3-yl)-4-(trifluoromethoxy)butan-2-yl)-5-(4,4,4-trifluoro-2-hydroxybutanoyl)-5-azaspiro[2.4]heptane-6-carboxamide] | 0.05 to 0.2 µM
5 | CC(C)C[C@H](NC(=O)C(=O)N1CCCc2ccccc21)C(=O)N[C@@H](CC1CCNC1=O)C(=O)COC(F)(F)F (stereo partly drawn) [Compound 196, (2S)-2-(2-(3,4-dihydroquinolin-1(2H)-yl)-2-oxoacetamido)-4-methyl-N-((2S)-3-oxo-1-(2-oxopyrrolidin-3-yl)-4-(trifluoromethoxy)butan-2-yl)pentanamide] | < 0.05 µM
6 | CC(C)CC[C@H](NC(=O)C(=O)Nc1ccccc1)C(=O)N[C@@H](C[C@@H]1CCNC1=O)C(=O)COc1c(F)c(F)cc(F)c1F [Compound 36, N1-((S)-5-methyl-1-oxo-1-(((S)-3-oxo-1-((S)-2-oxopyrrolidin-3-yl)-4-(2,3,5,6-tetrafluorophenoxy)butan-2-yl)amino)hexan-2-yl)-N2-phenyloxalamide] | < 0.05 µM
7 | COCc1ccccc1NC(=O)C(=O)N[C@@H](CC(C)C)C(=O)N[C@@H](C[C@@H]1CCNC1=O)C(=O)COc1c(F)c(F)cc(F)c1F [Compound 143, N1-(2-(methoxymethyl)phenyl)-N2-((S)-4-methyl-1-oxo-1-(((S)-3-oxo-1-((S)-2-oxopyrrolidin-3-yl)-4-(2,3,5,6-tetrafluorophenoxy)butan-2-yl)amino)pentan-2-yl)oxalamide] | 0.05 to 0.2 µM
8 | CC1(C)[C@@H]2[C@@H](C(=O)N[C@@H](C[C@@H]3CCNC3=O)C(=O)COC(F)(F)F)N(C(=O)[C@H]3CCCO3)C[C@@H]21 [Compound 291, (1R,2S,5S)-6,6-dimethyl-N-((S)-3-oxo-1-((S)-2-oxopyrrolidin-3-yl)-4-(trifluoromethoxy)butan-2-yl)-3-((R)-tetrahydrofuran-2-carbonyl)-3-azabicyclo-[3.1.0]hexane-2-carboxamide] | 0.05 to 0.2 µM
9 | CC(C)C[C@H](NC(=O)CNc1ccccc1)C(=O)N[C@@H](C[C@@H]1CCNC1=O)C(=O)COc1c(F)c(F)cc(F)c1F [Compound 40, (S)-4-methyl-N-((S)-3-oxo-1-((S)-2-oxopyrrolidin-3-yl)-4-(2,3,5,6-tetrafluorophenoxy)butan-2-yl)-2-(2-(phenylamino)-acetamido)pentanamide] | < 0.05 µM
10 | CC(C)C[C@H](NC(=O)c1cc(-c2ccccc2)on1)C(=O)N[C@@H](C[C@@H]1CCNC1=O)C(=O)COc1c(F)c(F)cc(F)c1F [Compound 70, N-((S)-4-methyl-1-oxo-1-(((S)-3-oxo-1-((S)-2-oxopyrrolidin-3-yl)-4-(2,3,5,6-tetrafluoro-phenoxy)butan-2-yl)amino)pentan-2-yl)-5-phenylisoxazole-3-carboxamide] | 0.2 to 0.5 µM
11 | COCC1(NC(=O)C(=O)N[C@@H](CC2CC2)C(=O)N[C@@H](C[C@@H]2CCNC2=O)C(=O)COC(F)(F)F)COC1 [Compound 238, N1-((S)-3-cyclopropyl-1-oxo-1-(((S)-3-oxo-1 ((S)-2-oxopyrrolidin-3-yl)-4-(trifluoromethoxy)butan-2-yl)amino)propan-2-yl)-N2-(3-(methoxymethyl)oxetan-3-yl)oxalamide] | 0.2 to 0.5 µM

Same assay, conditions: Severe acute respiratory syndrome coronavirus 2, HeLa-ACE2, 24 h, HeLa-ACE2 cells, SARS-CoV-2 infection, 24 h; given as bound; read-out: EC50, uM (Hela)

Row | SMILES | EC50
12 | CC1(NC(=O)C(=O)N2CC3(CCC3)C[C@H]2C(=O)N[C@@H](C[C@@H]2CCNC2=O)C(=O)COC(F)(F)F)CC1 [Compound 558, (S)-6-(2-((l-methylcyclopropyl)-amino)-2-oxoacetyl)-N-((S)-3-oxo-1-((S)-2-oxopyrrolidin-3-yl)-4-(trifluoromethoxy)butan-2-yl)-6-azaspiro[3.4]octane-7-carboxamide] | > 1 µM

Same assay, conditions: Severe acute respiratory syndrome coronavirus 2, HeLa-ACE2, 24 h, HeLa-ACE2 cells, SARS-CoV-2 infection, 24 h; read-out: EC50, uM (Hela)

Row | SMILES | EC50
13 | O=C1NCC[C@H]1C[C@H](NC(=O)[C@@H]1[C@H]2CCC[C@H]2CN1C(=O)c1noc2c1COCC2)C(=O)COC(F)(F)F [Compound 549, (1S,3aR,6aS)-2-(6,7-dihydro-4H-pyrano[3,4-d]isoxazole-3-carbonyl)-N-((S)-3-oxo-1-((S)-2-oxopyrrolidin-3-yl)-4-(trifluoromethoxy)butan-2-yl)octahydrocyclo-penta[c]pyrrole-1-carboxamide] | 0.05 to 0.2 µM
14 | O=C1NCC[C@H]1C[C@H](NC(=O)[C@@H]1CC2(CC2)CN1C(=O)c1cc2cccc(Cl)c2[nH]1)C(=O)COC(F)(F)F [Compound 663, (S)-5-(7-chloro-1H-indole-2-carbonyl)-N-((S)-3-oxo-1-((S)-2-oxopyrrolidin-3-yl)-4-(trifluoromethoxy)butan-2-yl)-5-azaspiro[2.4]heptane-6-carboxamide] | < 0.05 µM
15 | CC(C)(C)c1ccccc1NC(=O)C(=O)N1CC2(CC2)C[C@H]1C(=O)N[C@@H](C[C@@H]1CCNC1=O)C(=O)COC(F)(F)F [Compound 613, (S)-5-(2-((2-(tert-butyl)phenyl)amino)-2-oxoacetyl)-N-((S)-3-oxo-1-((S)-2-oxopyrrolidin-3-yl)-4-(trifluoromethoxy)butan-2-yl)-5-azaspiro[2.4]heptane-6-carboxamide] | < 0.05 µM
16 | Cc1ccccc1NC(=O)C(=O)N[C@@H](CC(C)(C)C)C(=O)N[C@@H](C[C@@H]1CCNC1=O)C(=O)COC(F)(F)F [Compound 504, N1-((S)-4,4-dimethyl-1-oxo-1-(((S)-3-oxo-1-((S)-2-oxopyrrolidin-3-yl)-4-(trifluoromethoxy)butan-2-yl)amino)pentan-2-yl)-N2-(o-tolyl)oxalamide] | < 0.05 µM
17 | CC1(C)[C@@H]2[C@@H](C(=O)N[C@@H](C[C@@H]3CCNC3=O)C(=O)COC(F)(F)F)N(C(=O)[C@@H](O)c3ccccc3F)C[C@@H]21 [Compound 411, (1R,2S,5S)-3-((S)-2-(2-fluorophenyl)-2-hydroxyacetyl)-6,6-dimethyl-N-((S)-3-oxo-1-((S)-2-oxopyrrolidin-3-yl)-4-(trifluoromethoxy)butan-2-yl)-3-azabicyclo-[3.1.0]hexane-2-carboxamide] | < 0.05 µM
18 | CC(C)NC(=O)C(=O)N1CC2(CC2)C[C@H]1C(=O)N[C@@H](C[C@@H]1CCNC1=O)C(=O)COC(F)(F)F [Compound 747, (S)-5-(2-(isopropylamino)-2-oxoacetyl)-N-((S)-3-oxo-1-((S)-2-oxopyrrolidin-3-yl)-4-(trifluoromethoxy)butan-2-yl)-5-azaspiro[2.4]heptane-6-carboxamide] | < 0.05 µM
19 | O=C1NCC[C@H]1C[C@H](NC(=O)[C@@H]1CC2(CC2)CN1C(=O)CCC(F)F)C(=O)COC(F)(F)F [Compound 683, (S)-5-(4,4-difluorobutanoyl)-N-((S)-3-oxo-1-((S)-2-oxopyrrolidin-3-yl)-4-(trifluoromethoxy)butan-2-yl)-5-azaspiro[2.4]heptane-6-carboxamide] | 0.05 to 0.2 µM
20 | CC(C)C[C@@H](OC(=O)C(C)C)C(=O)N1CC2(CC2)C[C@H]1C(=O)N[C@@H](C[C@@H]1CCNC1=O)C(=O)COC(F)(F)F [Compound 631, (R)-4-methyl-1-oxo-1-((S)-6-(((S)-3-oxo-l-((S)-2-oxopyrrolidin-3-yl)-4-(trifluoromethoxy)butan-2-yl)carbamoyl)-5-azaspiro[2.4]heptan-5-yl)pentan-2-yl isobutyrate] | 0.2 to 0.5 µM
21 | CC(C)(C)c1ccc(C(=O)N2CC3(CC3)C[C@H]2C(=O)N[C@@H](C[C@@H]2CCNC2=O)C(=O)COC(F)(F)F)cc1 [Compound 453, (S)-5-(4-(tert-butyl)benzoyl)-N-((S)-3-oxo-1-((S)-2-oxopyrrolidin-3-yl)-4-(trifluoromethoxy)butan-2-yl)-5-azaspiro[2.4]heptane-6-carboxamide] | < 0.05 µM

Same assay, conditions: Severe acute respiratory syndrome coronavirus 2, HeLa-ACE2, 24 h; read-out: EC50, uM (Hela)

Row | SMILES | EC50
22 | O=C1NCC[C@H]1C[C@H](NC(=O)[C@@H]1CC2(CC2)CN1C(=O)C(F)F)C(=O)COC(F)(F)F [Compound 635, (S)-5-(2,2-difluoroacetyl)-N-((S)-3-oxo-1-((S)-2-oxopyrrolidin-3-yl)-4-(trifluoromethoxy)butan-2-yl)-5-azaspiro[2.4]heptane-6-carboxamide] | 0.05 to 0.2 µM
23 | CC(C)C[C@H](NC(=O)c1cc2cc(F)ccc2[nH]1)C(=O)N[C@@H](C[C@@H]1CCNC1=O)C(=O)COP(=O)(c1ccccc1)c1ccccc1 [Compound 50, (S)-3-((S)-2-(5-fluoro-1H-indole-2-carboxamido)-4-methylpentanamido)-2-oxo-4-((S)-2-oxopyrrolidin-3-yl)butyl diphenylphosphinate] | 0.2 to 0.5 µM
